A word on the IC50: it is the concentration at which inhibition is half-maximal. Read a high IC50 as lower potency.

Results on 4 compounds are retold here after PMC4306950 (Marine Drugs, 2015).

For experiment [1], the target named is T1, mKv1.3 channels stably expressed in mouse L929 fibroblasts (Mus musculus, UniProt P16390).
T1 construct: expressed in transfected cells
The experiment in a line: Whole-cell patch-clamp electrophysiology on Kv1.3. Type of experiment: cell-based. The settings on record: mKv1.3 in L929 fibroblasts, 200 ms pulses to 40 mV every 30 s, holding -80 mV, Hill fit, n = 3 to 6 cells per concentration. The protocol: Mouse fibroblasts stably expressing homotetramers of Kv1.1 or Kv1.3 were patch-clamped in the whole-cell configuration and steady-state block was measured after addition of different concentrations of the peptides.
(§1) Chips averaged 2–3.5 MΩ and a holding potential of −80 mV was used for all recordings. Series resistance compensation of 80% was used when currents exceeded 2 nA. The external solution was normal Ringer solution containing (in mM): 160 NaCl, 4.5 KCl, 2 CaCl2, 1 MgCl2, 10 Hepes, pH 7.4, 310 mOsm. The internal solution contained (in mM): 145 KF, 10 HEPES, 10 EGTA (ethylene glycol tetraacetic acid), 2 MgCl2, pH 7.2, 300 mOsm. Currents were elicited by repeated 200 ms pulses to 40 mV applied at intervals of 30 s for Kv1.3 and 10 s for Kv1.1. IC50 values were determined by fitting the Hill equation to the reduction of area under the current curve measured at 40 mV in the presence of different concentrations of the peptides (GraphPad Prism software, La Jolla, CA, USA).

Experiment [2] deals with T2, Kv1.4 (mouse LTK fibroblasts stably transfected with Kv1.4) (Homo sapiens, UniProt P22459).
T2 construct: expressed in transfected cells
The experiment in a line: Whole-cell patch-clamp electrophysiology on Kv1.4. Type of experiment: cell-based. To be noted: for block of Kv1.4 at 100 nM: mouse LTK fibroblasts stably transfected with Kv1.4, peptide 100 nM. (The patch-clamp technique gives a direct electrical read-out from membranes.)

For experiment [3], the target named is T3, hKv1.6 (HEK cells transiently transfected with hKv1.6:eGFP) (Homo sapiens, UniProt P17658).
T3 construct: expressed in transfected cells; host or cells: HEK cells, transient, Lipofectamine 2000 (plasmid a gift from Dr. Heike Wulff)
The experiment in a line: Whole-cell patch-clamp electrophysiology on Kv1.6. Type of experiment: cell-based. To be noted: for block of Kv1.6 at 100 nM: HEK cells transiently transfected with hKv1.6:eGFP, patched 19 h after transfection, peptide 100 nM. The method, then:
The HEK cells were patched 19 h after transfection.
as §1

Experiment [4] concerns acute adoptive EAE, animal model of MS mediated by T lymphocytes. The settings on record: cited from earlier work. The source says:
The Kv1.3 channel was discovered in the early 1980’s by the Chandy and Cahalan labs at the University of California Irvine and the Deutsch lab at the University of Pennsylvania. This K^+ channel, found in T lymphocytes, was the first to be described outside electrically excitable tissues. […] Kv1.3 in T lymphocytes is a voltage-gated homotetrameric membrane protein responsible for controlling the me ...

T2 sequence (P22459 whole entry): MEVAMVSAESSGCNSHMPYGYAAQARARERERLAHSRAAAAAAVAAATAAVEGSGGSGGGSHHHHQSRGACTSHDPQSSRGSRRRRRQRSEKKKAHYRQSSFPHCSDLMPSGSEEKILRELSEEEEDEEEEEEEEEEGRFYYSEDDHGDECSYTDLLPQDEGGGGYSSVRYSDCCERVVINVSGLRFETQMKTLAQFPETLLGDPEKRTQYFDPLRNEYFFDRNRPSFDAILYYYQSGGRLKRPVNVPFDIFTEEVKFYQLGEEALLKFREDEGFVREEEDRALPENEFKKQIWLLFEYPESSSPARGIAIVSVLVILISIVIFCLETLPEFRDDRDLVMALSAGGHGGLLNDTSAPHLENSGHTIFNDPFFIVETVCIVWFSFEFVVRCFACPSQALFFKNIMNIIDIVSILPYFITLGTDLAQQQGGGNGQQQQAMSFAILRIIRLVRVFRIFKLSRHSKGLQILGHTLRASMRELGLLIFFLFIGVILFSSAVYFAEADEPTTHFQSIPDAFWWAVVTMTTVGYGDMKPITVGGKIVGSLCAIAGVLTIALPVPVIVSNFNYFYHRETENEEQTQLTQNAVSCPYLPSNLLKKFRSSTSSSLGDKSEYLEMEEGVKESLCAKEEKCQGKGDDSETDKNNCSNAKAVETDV
T3 sequence (P17658 whole entry): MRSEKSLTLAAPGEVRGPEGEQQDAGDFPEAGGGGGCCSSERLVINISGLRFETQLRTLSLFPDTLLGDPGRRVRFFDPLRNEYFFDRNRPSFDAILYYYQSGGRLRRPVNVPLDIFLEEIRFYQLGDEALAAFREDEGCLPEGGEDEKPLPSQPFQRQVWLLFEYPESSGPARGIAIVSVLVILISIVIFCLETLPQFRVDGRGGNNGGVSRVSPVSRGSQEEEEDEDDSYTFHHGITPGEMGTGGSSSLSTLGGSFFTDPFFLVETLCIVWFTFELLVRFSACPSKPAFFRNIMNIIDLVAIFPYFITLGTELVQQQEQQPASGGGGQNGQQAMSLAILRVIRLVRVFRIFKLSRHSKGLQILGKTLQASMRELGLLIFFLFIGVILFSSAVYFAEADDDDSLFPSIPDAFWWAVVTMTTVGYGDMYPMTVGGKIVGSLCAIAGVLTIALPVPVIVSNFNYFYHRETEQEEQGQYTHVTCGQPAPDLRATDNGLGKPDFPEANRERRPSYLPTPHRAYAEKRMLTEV
T1 sequence (P16390 whole entry): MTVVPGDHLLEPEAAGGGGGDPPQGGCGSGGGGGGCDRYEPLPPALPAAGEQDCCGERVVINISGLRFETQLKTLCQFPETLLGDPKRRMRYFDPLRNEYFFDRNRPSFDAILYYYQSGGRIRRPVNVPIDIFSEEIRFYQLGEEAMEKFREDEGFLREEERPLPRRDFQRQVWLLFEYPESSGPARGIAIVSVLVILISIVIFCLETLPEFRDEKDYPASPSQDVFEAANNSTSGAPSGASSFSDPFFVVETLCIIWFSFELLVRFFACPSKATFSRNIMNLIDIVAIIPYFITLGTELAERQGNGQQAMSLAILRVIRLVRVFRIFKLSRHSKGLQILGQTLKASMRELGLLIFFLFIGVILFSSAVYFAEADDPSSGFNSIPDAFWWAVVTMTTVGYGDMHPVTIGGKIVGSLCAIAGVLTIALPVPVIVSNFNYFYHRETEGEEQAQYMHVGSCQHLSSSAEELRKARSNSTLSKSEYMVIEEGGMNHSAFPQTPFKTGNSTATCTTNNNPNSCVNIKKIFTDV

Regarding `CC[C@H](C)[C@@H]1NC(=O)[C@H](CO)NC(=O)[C@H](Cc2c[nH]cn2)NC(=O)[C@H](CCCCN)NC(=O)[C@@H]2CSSC[C@@H]3NC(=O)[C@H]([C@@H](C)O)NC(=O)[C@H](CCCCN)NC(=O)[C@H](CCCNC(=N)N)NC(=O)[C@H](CSSC[C@H](NC(=O)[C@H](CCCNC(=N)N)NC(=O)[C@H](CO)NC(=O)[C@H](CCCCN)NC(=O)[C@@H]4CCCN4C(=O)[C@H]([C@@H](C)CC)NC(=O)[C@H]([C@@H](C)O)NC(=O)[C@H](CC(=O)O)NC(=O)[C@H]([C@@H](C)CC)NC(=O)[C@@H](NC(=O)[C@H](CO)NC(=O)[C@@H](N)CCCNC(=N)N)CSSC[C@@H](C(=O)N[C@@H](C)C(=O)O)NC(=O)[C@H]([C@@H](C)O)NC(=O)CNC3=O)C(=O)N[C@@H]([C@@H](C)O)C(=O)N[C@@H](C)C(=O)N[C@@H](Cc3ccccc3)C(=O)N[C@@H](CCCCN)C(=O)N2)NC(=O)[C@H](Cc2ccccc2)NC(=O)[C@H](CO)NC(=O)[C@H](CC(C)C)NC(=O)[C@H](CCCNC(=N)N)NC(=O)[C@H](Cc2ccc(O)cc2)NC(=O)[C@H](CCCCN)NC1=O` [ShK-235], in experiment [1], the half-inhibitory concentration (IC50) turned out to be 62 ± 13.2 pM. Further, in experiment [2], the “block of Kv1.4 at 100 nM” value is recorded as less than 15% block at 100 nM. Further, in experiment [3], the “block of Kv1.6 at 100 nM” value is roughly 25%.

The compound `CC[C@H](C)[C@@H]1NC(=O)[C@@H](NC(=O)[C@H](CO)NC(=O)[C@@H](N)CCCNC(=N)N)CSSC[C@@H](C(=O)N[C@@H](C)C(=O)O)NC(=O)[C@H]([C@@H](C)O)NC(=O)CNC(=O)[C@@H]2CSSC[C@@H]3NC(=O)[C@H](CCCCN)NC(=O)[C@H](Cc4ccccc4)NC(=O)[C@H](C)NC(=O)[C@H]([C@@H](C)O)NC(=O)[C@H](CSSC[C@H](NC(=O)[C@H](Cc4ccccc4)NC(=O)[C@H](CO)NC(=O)[C@H](CC(C)C)NC(=O)[C@H](CCCNC(=N)N)NC(=O)[C@H](Cc4ccc(O)cc4)NC(=O)[C@H](CCCCN)NC(=O)[C@H](CCSC)NC(=O)[C@H](CO)NC(=O)[C@H](Cc4c[nH]cn4)NC(=O)[C@H](CCCCN)NC3=O)C(=O)N[C@@H](CCCNC(=N)N)C(=O)N[C@@H](CCCCN)C(=O)N[C@@H]([C@@H](C)O)C(=O)N2)NC(=O)[C@H](CCCNC(=N)N)NC(=O)[C@H](CO)NC(=O)[C@H](CCCCN)NC(=O)[C@@H]2CCCN2C(=O)[C@H]([C@@H](C)CC)NC(=O)[C@H]([C@@H](C)O)NC(=O)[C@H](CC(=O)O)NC1=O` [ShK-234] registered a 50% inhibitory concentration (IC50) in experiment [1] of 37 ± 4.6 pM. The “block of Kv1.4 at 100 nM” value in experiment [2] was less than 15% block at 100 nM. The “block of Kv1.6 at 100 nM” value in experiment [3] is on record as roughly 25%.

Regarding kaliotoxin, in experiment [4], the “effect on acute adoptive EAE” value is reported as “ameliorate clinical signs”.

`CC[C@H](C)[C@@H]1NC(=O)[C@@H](NC(=O)[C@H](CO)NC(=O)[C@@H](N)CCCNC(=N)N)CSSC[C@@H](C(=O)O)NC(=O)[C@H]([C@@H](C)O)NC(=O)CNC(=O)[C@@H]2CSSC[C@@H]3NC(=O)[C@H](CCC(N)=O)NC(=O)[C@H](Cc4ccccc4)NC(=O)[C@H](C)NC(=O)[C@H]([C@@H](C)O)NC(=O)[C@H](CSSC[C@H](NC(=O)[C@H](Cc4ccccc4)NC(=O)[C@H](CO)NC(=O)[C@H](CC(C)C)NC(=O)[C@H](CCCNC(=N)N)NC(=O)[C@H](Cc4ccc(O)cc4)NC(=O)[C@H](CCCCN)NC(=O)[C@H](CCSC)NC(=O)[C@H](CO)NC(=O)[C@H](Cc4cnc[nH]4)NC(=O)[C@H](CCCCN)NC3=O)C(=O)N[C@@H](CCCNC(=N)N)C(=O)N[C@@H](CCCCN)C(=O)N[C@@H]([C@@H](C)O)C(=O)N2)NC(=O)[C@H](CCCNC(=N)N)NC(=O)[C@H](CO)NC(=O)[C@H](CCCCN)NC(=O)[C@@H]2CCCN2C(=O)[C@H]([C@@H](C)CC)NC(=O)[C@H]([C@@H](C)O)NC(=O)[C@H](CC(=O)O)NC1=O` [ShK, reference compound]: the values for the IC50 in experiment [1], in experiment [2] and in experiment [3] were 13.3 ± 1.4 pM, 312 ± 14 pM and 165000 ± 8000 pM, respectively.
